Laboratory results as given in patent US12600740B2, “Fluorinated N-acetyl glucosamine analogs and xylose derivatives” (UTI Limited Partnership, priority 2018, dated 2026).
Entries after “also recorded” stand apart in the source; their conditions may differ.

Legend:
[1] = tested on: heparan sulfate proteoglycans (HSPGs) side chains; experiment: Western blot of heparan sulfate GAGs (10E4) produced by astrocytes; type: cell-based, mouse
Source text: Compounds that were able to reduce chondroitin GAGs were also investigated for their ability to reduce heparan sulfate GAGs. […] D. & de Vries, H. E. Extensive extracellular matrix depositions in active multiple sclerosis lesions. Neurobiology of disease 24, 484-491 (2006); van Horssen, J., Bö, L., Vos, C. M., Virtanen, I. & de Vries, H. E. Basement membrane proteins in multiple sclerosis-associated inflammatory cuffs: potential role in influx and transport of leukocytes. Journal of neuropathology and experimental neurology 64, 722-729 (2005)] and have detrimental pro-inflammatory capabilities [Parish, C. R. The role of heparan sulphate in inflammation. Nature reviews. Immunology 6, 633-643 (2006)].
Astrocytes were plated in uncoated 6-well plates (3 replicate wells per treatment) at 1×10^6 cells/well in mixed glial media, and incubated at 5% CO2 and 37° C. Astrocytes were treated with compounds at 50 μM in AIM-V media for 48 hours. Media was pooled from 3 replicate wells in 15 ml 100K cutoff centricon tubes (EMD Millipore, #UFC905008), which were spun on an ultracentrifuge at 5000× g for 2 cycles of 10 minutes each. When harvested, the cell lysate was kept on ice for 5 minutes with 250 μL of RIPA buffer (ThermoFisher Scientific #89900) containing proteinase inhibitor, and then collected and centrifuged at 14000 g for 5 minutes. Total protein was quantified using a Bradford assay. Conditioned media that were to be probed for chondroitin 4-sulfate GAGs (Millipore, #MAB2030) were first digested with 0.2 U/ml chondroitinase ABC for overnight at 37° C. to remove chondroitin sulfate sidechains. Blots that were to be probed with CSA (2H6, Cosmo) or CS56 (Abcam #ab11570) were not exposed to chondroitinase ABC. Samples were heat denatured with NuPAGE® LDS Sample buffer at 70° C. for 10 minutes and then loaded into 3-8% tris-acetate pre-cast gels (ThermoFisher, #EA0478BOX). The gels were electrophoresed at a constant 150 V for 90 minutes and transferred to a […] polyvinylidene fluoride membrane at a constant 250 mA for 60 minutes. The membranes were blocked for one hour with 10% skim milk in Tris-buffered saline (TBS; 0.9% NaCl, 10 mM Tris-HCl, pH 7.5) containing 0.5% Tween 20 (TBS-T). Primary antibodies were added in 3% skim milk and incubated overnight at 4° C. The membranes were washed 5×5 minutes with TBS-T. HRP-conjugated secondary antibodies were incubated for 120 minutes. The membranes were washed again for 5×5 minutes with TBS-T. Membranes were developed using an ECL chemiluminescence kit (GE Lifesciences) and manually exposed to developing and fixative solutions. Band density was quantified using Gel Analysis on ImageJ. A rectangular shape measured the density of bands for each lane. […]

splenocytes [2] = experiment: Propidium iodide DNA cell cycle flow cytometry of splenocytes; type: cell-based, mouse; conditions: activated splenocytes
Source text: Cell-cycle flow cytometry with propidium iodide was used to corroborate the above results, and ensure the reduction in proliferation was not due to cell death. […] To further investigate whether the reduction of proliferation was due to cell death, Annexin V and propidium iodide staining were used to differentiate necrotic cells (propidium iodide+), apoptotic cells (annexin V+), dead cells (propidium iodide+ and annexin V+), and live cells (propidium iodide-annexin V−).
Cell cycle staining with propidium iodide (PI) and analysis by flow cytometry gives percentage of cells in apoptosis, G1, G2, and synthesis, and apoptosis. Following a membrane permeabilization, PI chelates to DNA and level of staining specifies the stage of the cell cycle (e.g., G2 phase will have twice the DNA and thus twice the PI signal as G1 phase, apoptotic cells contain less DNA than healthy cells and are identified by low PI staining). 1×10^6 splenocytes were used per sample, with four replicates per condition. Cells were collected into a tube with PBS and centrifuged (200 r.p.m. for 5 minutes). […] Suspension was transferred to a FACs tube and analyzed. Annexin V/Propidium iodide staining was detected using the Annexin V FITC apoptosis detection kit (BD Biosciences, #556547), which was performed according to manufacturer's instructions.

EAE mice = experiment: Experimental autoimmune encephalomyelitis (EAE) clinical score; type: in vivo, mouse
splenocytes [3] = conditions: shown previously (Grigorian et al. 2011); cited from earlier work
[4] = 50 mg/kg intraperitoneal daily, day 7 to day 15

CC(=O)NC1C(OC(C)=O)OC(COC(C)=O)C(F)(F)[C@@H]1OC(C)=O (mixture of isomers) [Compound 16, 2-Acetamido-1,3,6-tri-O-acetyl-2,4-dideoxy-4,4-difluoro-α/β-D-xylo-hexopyranose]
HSPG side chains (intact heparan sulfate GAGs, 10E4) [1]: slight reduction in HSPG side chains
percentage of cells in cell cycle phases (splenocytes [2]): reduced the percentage of cells in the S (DNA synthesis)-phase of the cell cycle
EAE clinical score (EAE mice; 25 mg/kg daily from peak clinical severity (day 15)): significantly reduced EAE clinical severity; also recorded: did not significantly improve disability until nine days after treatment
sum of scores (burden of disease) (EAE mice; 25 mg/kg intraperitoneal daily, day 7 to day 15): significantly reduced
EAE clinical score (EAE mice; 25 mg/kg intraperitoneal daily, day 7 to day 15 (pre-onset)): significantly lower EAE clinical scores than the control group
EAE clinical score (EAE mice; [4]): pronounced reduction in EAE clinical severity beyond that seen for the mono-fluorinated Ac-4-F-GlcNAc

CC(=O)NC1C(OC(C)=O)OC(COC(C)=O)[C@@H](F)C1OC(C)=O (some centres unmarked) [Compound 3, reference compound]
HSPG side chains (intact heparan sulfate GAGs, 10E4) [1]: slight reduction in HSPG side chains

CCCC(=O)OC1OC(COC(C)=O)[C@@H](F)[C@H](OC(C)=O)C1NC(C)=O (mixture of isomers) [Compound 8, 2-Acetamido-3,6-di-O-acetyl-1-O-butanoyl-2,4-dideoxy-4-fluoro-α/β-D-glucopyranose]
HSPG side chains (intact heparan sulfate GAGs, 10E4) [1]: slight reduction in HSPG side chains

CCCC(=O)OC[C@H]1OC(O)[C@H](NC(C)=O)[C@@H](OC(=O)CCC)[C@@H]1F (stereo partly drawn) [Compound 12, 2-Acetamido-3,6-di-O-butanoyl-2,4-dideoxy-4-fluoro-α/β-3-D-glucopyranose]
HSPG side chains (intact heparan sulfate GAGs, 10E4) [1]: slight reduction in HSPG side chains

CC(=O)N[C@H]1[C@H](OC(C)=O)O[C@H](COC(C)=O)[C@@H](OC(C)=O)[C@@H]1OC(C)=O [Compound 1, reference compound]
splenocyte proliferation (splenocytes [3]): reduction in splenocyte proliferation

CC(=O)NC1C(O)OC(COC(C)=O)[C@@H](F)[C@@H]1OC(C)=O (mixture of isomers) [Compound 10]
EAE clinical score (EAE mice; [4]): did not reduce EAE clinical score; also recorded: no significant improvement in EAE clinical score
